Test results: patent US20240165214A1, “COMPOSITIONS AND METHODS FOR STABILIZATION OF ALLOSTERIC PROTEINS” (priority 2021, published 2024)

Assays:
RNase B = experiment: BLI kinetics of FimH fimbriae binding to RNase B; set-up: species or system bovine; details: RNAseB binding
Procedure: To test the kinetics of fimbriae binding to RNase B, streptavidin-coated biosensors (SA, FortéBio) were first allowed to bind biotinylated RNase B (applied at a concentration of 10-20 μg/ml in 0.2% BSA HBS). […] The dissociation of the fimbriae-RNase B complexes was conducted in 0.2% BSA HBS. The binding sensorgrams after single reference subtraction (biosensors with 0.2% BSA HBS, or Fab824, respectively) were used for global fitting. […] The standard error that was given in the table for the kinetic parameters relates to the “fit” of the data to the model.

guinea pig RBC = experiment: Red blood cell (RBC) aggregation by bacteria under rocking (Example 1); format: cell-based
Procedure: Guinea pig RBC (Colorado Serum Company) were washed with PBS three times. 50 μl of RBC suspension (1%) was mixed 1:1 with 50 μl of 4×10^8 of type 1 fimbriated bacteria in a glass plate in the absence and presence of 1% αmm and continuously mixed at high speed on rotator (Model 260300F, Fisher Scientific) for extended period of time. The aggregation of RBC was visually scored and the time at which noticeable aggregation was observed and reported in minutes (min). In some experiments, bacterial cells were first pre-incubated for 5 min with 67 μg/ml of mAbs in the glass plate and then mixed with RBC suspension in the absence and presence of 1% αmm.

HRP = format: binding; details: fimbriae pre-treated with mAb824
Procedure: The assays were performed as described previously. In brief. 96-well microtiter plates were coated overnight with purified type 1 fimbriae in 0.02 M NaHCO3 buffer at pH 9.6 (0.1 mg/ml), followed by washes and quenching with 0.2% BSA in PBS. The immobilized fimbriae were incubated with HRP at a concentration of 50 μg/ml for 1 h in the absence or presence of 1% mannose. After extensive washing with PBS, bound horseradish peroxidase was detected by adding 100 μl of TMB substrate (Kirkegaard and Perry Laboratories, KPL) and absorbance was read at 650 nm. […] All incubations, unless stated otherwise, were performed at 37 C. The colorimetric reaction was developed in the presence of TMB substrate at RT and absorbance was read at 650 nm.

mAb21 = mAb21 binding time course to immobilized fimbriae and three-state model; details: for mAb21 binding over time course: absence of mannose, 10 sec to 2 hours; for keq ± SEM: Keq=kact/kdeact; for time to 50% of the maximal optical density (OD50) of mAb21 binding: presence of soluble mannose
Procedure: The assays were performed as described previously. In brief. 96-well microtiter plates were coated overnight with purified type 1 fimbriae in 0.02 M NaHCO3 buffer at pH 9.6 (0.1 mg/ml), followed by washes and quenching with 0.2% BSA in PBS. The immobilized fimbriae were incubated with HRP at a concentration of 50 μg/ml for 1 h in the absence or presence of 1% mannose. After extensive washing with PBS, bound horseradish peroxidase was detected by adding 100 μl of TMB substrate (Kirkegaard and Perry Laboratories, KPL) and absorbance was read at 650 nm. […] After the incubation for indicated time, the plates were washed extensively with PBS and FimH-mAb21 complexes were detected using HRP-conjugated goat anti-mouse antibody (Sigma-Aldrich, diluted 1:3000). All incubations, unless stated otherwise, were performed at 37 C. The colorimetric reaction was developed in the presence of TMB substrate at RT and absorbance was read at 650 nm.
For our modeling, we made the following definitions and assumptions.
To estimate kmAb21, we assumed that LD^A27V-PD^FocH is essentially all in HAS in the presence of mannose, so we fit high time-resolution data with a saturable binding model,
We then estimated kact and kdeact for all four variants in the presence and absence of mannose by fitting this model to the data by minimizing the least square error between the model and data points divided by the value of the data. Parameters were estimated independently for the data from each day the experiment was performed, to provide multiple values of each constant.
There were two limitations to using this model to estimate these parameters. […] Second, in two additional conditions—LD^wt-PD^wt in the presence of mannose and LD^A27V-PD^wt in the absence of mannose, a wide range of values of the rate constants produced the same fitting error. To identify a lower bound for the rate constants, we fit kact while holding kdeact constant over a wide range of values and observed that the error was high for low rates but reached a plateau at higher rates. We identified the lowest kdeact and corresponding kact values at which the error was no more than 10% that of all higher values. Throughout this plateau, Keq=kact/kdeact remained within a tight and reproducible range, so was well-determined by the model. For these two conditions, the lower bounds for the two kinetic constants and the upper and lower bound for the equilibrium constants are reported in Table 8.
For the remaining five conditions, the rate constants as well as equilibrium constants were reproducible for a wide range of initial guesses, and between replicate experiments, so we consider these to be reliable. […] These values were consistent with the estimated bounds and are also reported in FIGS. 20C and 20D for illustration.

[1] = test system: guinea pig red blood cells (RBC); experiment: RBC agglutination (rosette) under static conditions; format: cell-based
Procedure: (§1) Guinea pig RBC (Colorado Serum Company) were washed with PBS three times. 50 μl of RBC suspension (1%) was mixed 1:1 with 50 μl of 4×10^8 cfu of type 1 fimbriated bacteria in a glass plate in the absence and presence of 1% αmm and continuously mixed by gently rocking at ˜2-3 s^−1. The aggregation of RBC was visually scored and the time at which noticeable aggregation was observed and reported in minutes (min). In some experiments, bacterial cells were first pre-incubated for 5 min with 67 μg/ml of mAbs in the glass plate and then mixed with RBC suspension in the absence and presence of 1% αmm. RBC rosette-formation assay under was performed by mixing equal amounts of serially diluted bacterial sus-pensions (starting from OD540 nm 1.0) and a 1% suspension of RBC in U-bottom microtiter plate wells as described previously.
(§2) Finally, we compared cell binding ability of the FimH-expressing bacteria under static and dynamic conditions by using two classical set-ups with agglutination of guinea pig red blood cells (RBC)—the model cells for type 1 flmbriae-mediated bacterial adhesion. In the static assays, different dilutions of bacteria were combined with a suspension of RBC in U-shaped microtiter wells and allowed to settle without shaking. […]

[2] = test system: guinea pig red blood cells (RBC); experiment: RBC aggregation under dynamic (rocking) conditions; format: cell-based
Procedure: as §1, §2

[3] = molecular target: T1, FimH^wt (FimH adhesin of E. coli K12) (Escherichia coli K12, UniProt P08191 22-300); experiment: BLI; fimbriae on biotinylated RNase B on streptavidin probe; conformational change model; PBS
T1 construct: also called FimH^K12; LD^A27V-PD^wt
Procedure: To test the kinetics of fimbriae binding to RNase B, streptavidin-coated biosensors (SA, FortéBio) were first allowed to bind biotinylated RNase B (applied at a concentration of 10-20 μg/ml in 0.2% BSA HBS). […] The dissociation of the fimbriae-RNase B complexes was conducted in 0.2% BSA HBS. […] The standard error that was given in the table for the kinetic parameters relates to the “fit” of the data to the model.

asialofetuin = experiment: FmIH-dependent bacterial adhesion to asialofetuin; format: cell-based
Procedure: (§3) FmIH-dependent bacterial adhesion was analyzed as described previously with minor modifications (47). Briefly, Immulon 4HBX microtiter plates (Thermo Electron Corp.) were coated with 20 μg/mL of asialofetuin (Sigma-Aldrich) and plates were quenched with 0.2% BSA in PBS. Bacterial suspensions in PBS (OD540=2) were added to each well in a volume of 100 μl and plates were spun for 2 min at 750×g. After extensive washing, bound bacteria were stained with 0.1% (vol/vol) crystal violet for 20 min at room temperature and were washed several times with water. Then 100 μl of 50% (vol/vol) ethanol was added to each well, and the absorbance at a wavelength of 600 nm was measured. For inhibition, bacterial binding was tested in the presence of 1% galactose (Sigma).
as §3, with “[Kisiela D I, et al. (2015) Inhibition and Reversal of Microbial Attachment by an Antibody with Parasteric Activity against the FimH Adhesin of Uropathogenic E. coli. PLoS Pathog 11: e1004857].” for “(47).”, “(ThermoFisher Scientific)” for “(Thermo Electron Corp.)”

[4] = full-length FmIH in type 1 fimbrial background

Molecule: FimH^wt: 'wild-type' FimH adhesin from E. coli K12; b242: K12 and J96 express LD^A27V-PD^wt
- koff higher relative to FimH^FocH (RNase B): ~1000 fold
- kon higher relative to FimH^FocH (RNase B): ~50 fold
- lower affinity relative to FimH^FocH (RNase B): ~10 fold
- Time upon which noticeable aggregation of RBC was observed (guinea pig RBC; mAb824 pre-incubation (67 μg/ml)): >60 min
- Time upon which noticeable aggregation of RBC was observed (guinea pig RBC; αmm (1%)): >60 min
- binding of HRP in complex with mAb824 (HRP): remained very weak
- mAb21 binding over time course (mAb21): only marginal at the later time points
- kact ± SEM (mAb21; mannose absence): >8.8 × 10^−5
- kdeact ± SEM (mAb21; mannose absence): >2.3 × 10^0
- keq ± SEM (mAb21; mannose absence): 1.5 × 10^−3 to 4.0 × 10^−3
- kact ± SEM (mAb21; mannose presence): 3.4 × 10^−3 ± 0.4 × 10^−3
- kdeact ± SEM (mAb21; mannose presence): 8.7 × 10^−3 ± 1.7 × 10^−2
- keq ± SEM (mAb21; mannose presence): 3.9 × 10^−1 ± 0.9 × 10^−1
- time to 50% of the maximal optical density (OD50) of mAb21 binding (mAb21): ~3 min
- RBC binding / rosette formation [1]: only at a relatively high concentration (low titer) of bacteria
- Minimal IC of mannose [2]: .1%

Molecule: LD^wt-PD^wt: naturally-occurring FimH from fecal E. coli strain F18, evolutionary wild-type
- binding of HRP in complex with mAb824 (HRP): remained very weak
- mAb21 binding over time course (mAb21): No reliably measurable binding
- kact ± SEM (mAb21; mannose presence): >2.0 × 10^−4
- kdeact ± SEM (mAb21; mannose presence): >8.5 × 10^−2
- keq ± SEM (mAb21; mannose presence): 1.7 × 10^−2 to 2.3 × 10^−2
- mAb21 binding to fimbriae (mAb21; presence of 1% alpha-methyl-mannoside, 1 h): somewhat lower
- time to 50% of the maximal optical density (OD50) of mAb21 binding (mAb21): ~30 min
- RBC binding / rosette formation [1]: could not bind RBC at any concentration
- Minimal IC of mannose [2]: .1%

B1: ribonuclease B (RNase B), bovine (enzyme, UniProt P61823 27-150, looked up)
chain: KETAAAKFERQHMDSSTSAASSSNYCNQMMKSRNLTKDRCKPVNTFVHESLADVQAVCSQKNVACKNGQTNCYQSYSTMSITDCRETGSSKYPNCAYKTTQANKHIIVACEGNPYVPVHFDASV
modifications: N-linked high-mannose (Man5) oligosaccharides; biotinylated with Sulfo-NHS-LC-Biotin
- Kd [3]: 149 nM
- koff [3]: 0.256 s⁻¹
- kon [3]: 1.1e+06 M⁻¹ s⁻¹

B2: FmIH^FocH: wild-type FmIH lectin domain fused to the heterogeneous FocH-type pilin domain (protein)
chain: FSCNVDGGSSIGAGTTSVYVNLDPVIQPGQNLVVDLSQHISCWNDYGGWYDTDHINLVQGSAFAGSLQSYKGSLYWNNVTYPFPLTTNTNVLDIGDKTPMPLPLKLYITPVGAAGGVVIKAGEVIARIHMYKIATLGSGNPRNFTWNIISNNSVVMPTGGCDVSARDVTVTLPDYPGSVPIPLTVRCDQTQSVSYTLSGSVADAGNSIFTNTASFSPAQGVGVQLTRNGTIIPANNTVSLGAVGTSAVSLGLTANYARTGGQVTAGNVQSIIGVTFVYQ
- bacterial binding to asialofetuin (asialofetuin; [4]): increased binding relative to the wild-type adhesin

B3: V33E (protein, listed as Escherichia coli)
chain: FSCNVDGGSSIGAGTTSVYVNLDPVIQPGQNLEVDLSQHISCWNDYGGWYDTDHINLVQGSAFAGSLQSYKGSLYWNNVTYPFPLTTNTNVLDIGDKTPMPLPLKLYITPVGAAGGVVIKAGEVIARIHMYKIATLGSGNPRNFTWNIISNNSVVMPTGG
- bacterial binding to asialofetuin (asialofetuin; [4]): activation of the binding phenotype

B4: F63E (protein, listed as Escherichia coli)
chain: FSCNVDGGSSIGAGTTSVYVNLDPVIQPGQNLVVDLSQHISCWNDYGGWYDTDHINLVQGSAEAGSLQSYKGSLYWNNVTYPFPLTTNTNVLDIGDKTPMPLPLKLYITPVGAAGGVVIKAGEVIARIHMYKIATLGSGNPRNFTWNIISNNSVVMPTGG
- bacterial binding to asialofetuin (asialofetuin; [4]): activation of the binding phenotype

B5: L32E (protein, listed as Escherichia coli)
chain: FSCNVDGGSSIGAGTTSVYVNLDPVIQPGQNEVVDLSQHISCWNDYGGWYDTDHINLVQGSAFAGSLQSYKGSLYWNNVTYPFPLTTNTNVLDIGDKTPMPLPLKLYITPVGAAGGVVIKAGEVIARIHMYKIATLGSGNPRNFTWNIISNNSVVMPTGG
- bacterial binding to asialofetuin (asialofetuin; [4]): did not increase binding
- bacterial binding to asialofetuin (asialofetuin; mutation in FmIH^FocH): decreased the binding properties of FmIH^FocH
